These results are taken from patent publication US20210252104A1, “ANTIBACTERIAL PEPTIDE MONOMERS AND COMBINATIONS FOR CO-THERAPY” (ARREVUS, INC., priority 2018, published 2021).

≈ marks a conversion by molar mass, not a printed value. Like-named read-outs stand apart in the source and are kept apart here. Residues, ends and D or L forms follow the SMILES beside them. *: point of attachment. X2 = CN(C)C(=N[C@@H](CCCNC(=N)N)C(=O)*)N(C)C; Pentanoyl = CCCCC(=O)*; Butyryl = CCCC(=O)*

Test [1] has as its system Burkholderia pseudomallei 1026b. The format is in vivo. The note with it: for B. pseudomallei load in survivals (CFU/spleen) / total number of samples analyzed/samples with CFU > 10^8: day 62; for B. pseudomallei load in survivals (CFU/spleen): mean of samples with <10^8 CFU/spleen; for Number of deaths: every 6 h for 21 days, 10 mice, to day 62; for total number of samples analyzed/samples with CFU > 10^8: spleens.

Consider `CC(C)(O/N=C(\C(=O)N[C@@H]1C(=O)N2C(C(=O)[O-])=C(C[n+]3ccccc3)CS[C@H]12)c1csc(N)n1)C(=O)O` [Ceftazidime], for which, in test [1] (Ceftazidime 150 mg/kg ip), the “Median survival (days post-challenge)” value was 56.5 days post-challenge, the “B. pseudomallei load in survivals (CFU/spleen)” value is recorded as 2.6 × 10^5 CFU/spleen, the Number of deaths is recorded as 6 and the “total number of samples analyzed/samples with CFU > 10^8” value is 4/1. In addition, in test [1] (Ceftazidime 300 mg/kg ip), the “Median survival (days post-challenge)” value was “(>50% survival)”, the “B. pseudomallei load in survivals (CFU/spleen)” value was 2.4 × 10^5 CFU/spleen, the Number of deaths was found to be 3 and the “total number of samples analyzed/samples with CFU > 10^8” value was 3/1. For the same compound, in test [1] (ceftazidime monotherapy 150 mg/kg), the “Survival rate at the 62-day endpoint” value is listed as 40%. For the same compound, the “Survival rate at the 62-day endpoint” value in test [1] (ceftazidime monotherapy 300 mg/kg) is recorded as 70%.
Consider `CCCC(=O)N[C@@H](CCCNC(=N)N)C(=O)N1CCC[C@H]1C(=O)N[C@@H](CC(=O)O)C(=O)N[C@@H](CCCCN)C(=O)N1CCC[C@H]1C(=O)N[C@@H](CCCNC(=N)N)C(=O)N1CCC[C@H]1C(=O)N[C@@H](Cc1ccc(O)cc1)C(=O)N[C@@H](CC(C)C)C(=O)N1CCC[C@H]1C(=O)N[C@@H](CCCNC(=N)N)C(=O)N1CCC[C@H]1C(=O)N[C@@H](CCCNC(=N)N)C(=O)N1CCC[C@H]1C(=O)N1CCC[C@H]1C(=O)N[C@@H](CCCNC(=N)N)C(=O)N1CCC[C@H]1C(=O)N[C@H](C(=O)N[C@@H](CCCNC(=N)N)C(N)=O)C(C)C` [Example 3, Bu-RPDKPRPYLPRPRPPRPVR-NH2] (Butyryl-RPDKPRPYLPRPRPPRPVR-NH2), for which the MIC against P. aeruginosa ATCC 47085 was 96.3 ± 3.2 µM (≈ 233 µg/mL); against K. Pneumoniae ATCC 13883, 2.2 ± 0.4 µM (≈ 5.32 µg/mL); in the test on E. Coli ATCC 29222, 6.5 ± 2.6 µM (≈ 15.7 µg/mL); in the test with A. Baumannii ATCC 19606, above 100 µM.
The like results for `CCCCC(=O)N[C@@H](CCCNC(=N)N)C(=O)N1CCC[C@H]1C(=O)N[C@@H](CC(=O)O)C(=O)N[C@@H](CCCCN)C(=O)N1CCC[C@H]1C(=O)N[C@@H](CCCNC(=N)N)C(=O)N1CCC[C@H]1C(=O)N[C@@H](Cc1ccc(O)cc1)C(=O)N[C@@H](CC(C)C)C(=O)N1CCC[C@H]1C(=O)N[C@@H](CCCNC(=N)N)C(=O)N1CCC[C@H]1C(=O)N[C@@H](CCCNC(=N)N)C(=O)N1CCC[C@H]1C(=O)N1CCC[C@H]1C(=O)N[C@@H](CCCNC(=N)N)C(=O)N1CCC[C@H]1C(=O)N[C@H](C(=O)N[C@@H](CCCNC(=N)N)C(N)=O)C(C)C` [Example 4, Va-RPDKPRPYLPRPRPPRPVR-NH2] (Pentanoyl-RPDKPRPYLPRPRPPRPVR-NH2) were, in that order, 82.0 ± 5.0 µM (≈ 200 µg/mL), 2.1 ± 0.0 µM (≈ 5.11 µg/mL), 5.6 ± 1.8 µM (≈ 13.6 µg/mL) and above 100 µM.
For `CC(C)C[C@H](NC(=O)[C@H](Cc1ccc(O)cc1)NC(=O)[C@@H]1CCCN1C(=O)[C@H](CCCNC(=N)N)NC(=O)[C@@H]1CCCN1C(=O)[C@H](CCCCN)NC(=O)[C@H](CC(=O)O)NC(=O)[C@@H]1CCCN1C(=O)[C@H](CCCNC(=N)N)N=C(N(C)C)N(C)C)C(=O)N1CCC[C@H]1C(=O)N[C@@H](CCCNC(=N)N)C(=O)N1CCC[C@H]1C(=O)N[C@@H](CCCNC(=N)N)C(=O)N1CCC[C@H]1C(=O)N1CCC[C@H]1C(=O)N[C@@H](CCCNC(=N)N)C(=O)N1CCC[C@H]1C(=O)N[C@H](C(=O)N[C@@H](CCCNC(=N)N)C(N)=O)C(C)C` [Example 5, Gu-RPDKPRPYLPRPRPPRPVR-NH2] (X2-PDKPRPYLPRPRPPRPVR-NH2; N-terminus assumed), in that order: 64.7 ± 2.1 µM (≈ 158 µg/mL), 1.5 ± 0.4 µM (≈ 3.67 µg/mL), 5.8 ± 2.2 µM (≈ 14.2 µg/mL) and above 100 µM.
